Measured values taken from ChEMBL document CHEMBL1134152, “Biological activity in human neutrophils of di-tripeptides, analogues of the chemotactic fMLP” (Bioorg Med Chem Lett, 2001).

What was measured:
[1] = Chemotactic index (C.I.) which is the ratio: (migration toward test attractant minus migration toward the buffer)/(migration toward the buffer).; assay type: functional
[2] = Release of neutrophil granule enzymes was evaluated by determining lysozyme activity modified for microplate-based assays.

COC(=O)[C@H](Cc1ccccc1)NC(=O)[C@H](CCCCNC(=O)N[C@@H](CCSC)C(=O)N[C@@H](CC(C)C)C(=O)N[C@@H](Cc1ccccc1)C(=O)O)NC(=O)[C@H](CCSC)NC=O
Chemotactic index [1]: 0.7
Lysozyme release [2]: 70%

COC(=O)[C@H](Cc1ccccc1)NC(=O)[C@H](CC(=O)N[C@@H](CCSC)C(=O)N[C@@H](CC(C)C)C(=O)N[C@@H](Cc1ccccc1)C(=O)O)NC(=O)[C@H](CCSC)NC=O
Chemotactic index [1]: 0.5
Lysozyme release [2]: 65%

COC(=O)[C@H](Cc1ccccc1)NC(=O)[C@H](CC(C)C)NC(=O)[C@H](CCSC)NC=O
Chemotactic index [1]: 1
Lysozyme release [2]: 60%
